# Legend:
# Conditions in all cases: Compound concentration 1000.0 nM
# [1] = target: Serine/threonine-protein kinase TAO1 (Homo sapiens) (UniProt Q7L7X3)
# [2] = test system: Mast/stem cell growth factor receptor Kit (Homo sapiens), P10721 [L576P]
# [3] = target: Angiopoietin-1 receptor (Homo sapiens) (UniProt Q02763)
# [4] = target: Phosphatidylinositol 4-kinase beta (Homo sapiens) (UniProt Q9UBF8)
# [5] = target: Ribosomal protein S6 kinase alpha-4 (Homo sapiens) (UniProt O75676)
# [6] = target: 3-phosphoinositide-dependent protein kinase 1 (Homo sapiens) (UniProt O15530)
# [7] = target: cAMP-dependent protein kinase catalytic subunit alpha (Homo sapiens) (UniProt P17612)
# [8] = target: Tyrosine-protein kinase Fer (Homo sapiens) (UniProt P16591)
# [9] = target: Fibroblast growth factor receptor 4 (Homo sapiens) (UniProt P22455)
# [10] = test system: eIF-2-alpha kinase GCN2 (Homo sapiens), Q9P2K8 [S808G]
# [11] = target: Serine/threonine-protein kinase SIK2 (Homo sapiens) (UniProt Q9H0K1)
# [12] = target: Inhibitor of nuclear factor kappa-B kinase subunit beta (Homo sapiens) (UniProt O14920)
# [13] = target: Serine/threonine-protein kinase LATS2 (Homo sapiens) (UniProt Q9NRM7)
# [14] = target: TGF-beta receptor type-2 (Homo sapiens) (UniProt P37173)
# [15] = target: Casein kinase I isoform gamma-1 (Homo sapiens) (UniProt Q9HCP0)
# [16] = target: SRSF protein kinase 3 (Homo sapiens) (UniProt Q9UPE1)
# [17] = target: Serine/threonine-protein kinase BRSK2 (Homo sapiens) (UniProt Q8IWQ3)
# [18] = target: 5'-AMP-activated protein kinase catalytic subunit alpha-2 (Homo sapiens) (UniProt P54646)
# [19] = target: Mitogen-activated protein kinase kinase kinase 12 (Homo sapiens) (UniProt Q12852)
# [20] = target: Ribosomal protein S6 kinase alpha-2 (Homo sapiens) (UniProt Q15349)
# [21] = target: Serine/threonine-protein kinase TAO3 (Homo sapiens) (UniProt Q9H2K8)
# [22] = target: Serine/threonine-protein kinase Nek5 (Homo sapiens) (UniProt Q6P3R8)
# [23] = target: Serine/threonine-protein kinase PAK 4 (Homo sapiens) (UniProt O96013)
# [24] = target: G protein-coupled receptor kinase 4 (Homo sapiens) (UniProt P32298)
# [25] = target: Tyrosine-protein kinase SYK (Homo sapiens) (UniProt P43405)
# [26] = target: Tyrosine-protein kinase Srms (Homo sapiens) (UniProt Q9H3Y6)
# [27] = test system: Epidermal growth factor receptor (Homo sapiens), P00533 [L861Q]
# [28] = target: Activated CDC42 kinase 1 (Homo sapiens) (UniProt Q07912)
# [29] = target: Serine/threonine-protein kinase 3 (Homo sapiens) (UniProt Q13188)
# [30] = target: Serine/threonine-protein kinase SIK3 (Homo sapiens) (UniProt Q9Y2K2)
# [31] = target: Serine/threonine-protein kinase 38-like (Homo sapiens) (UniProt Q9Y2H1)
# [32] = target: Aurora kinase A (Homo sapiens) (UniProt O14965)
# [33] = target: Dual specificity mitogen-activated protein kinase kinase 3 (Homo sapiens) (UniProt P46734)
# [34] = target: Glycogen synthase kinase-3 beta (Homo sapiens) (UniProt P49841)
# [35] = target: Serine/threonine-protein kinase DCLK2 (Homo sapiens) (UniProt Q8N568)
# [36] = target: Calcium/calmodulin-dependent protein kinase type 1D (Homo sapiens) (UniProt Q8IU85)
# [37] = target: AP2-associated protein kinase 1 (Homo sapiens) (UniProt Q2M2I8)
# [38] = target: Fibroblast growth factor receptor 2 (Homo sapiens) (UniProt P21802)
# [39] = target: 1-phosphatidylinositol 3-phosphate 5-kinase (Homo sapiens) (UniProt Q9Y2I7)
# [40] = target: Serine/threonine-protein kinase TAO2 (Homo sapiens) (UniProt Q9UL54)
# [41] = target: Serine/threonine-protein kinase TBK1 (Homo sapiens) (UniProt Q9UHD2)
# [42] = target: NUAK family SNF1-like kinase 2 (Homo sapiens) (UniProt Q9H093)
# [43] = target: Ribosomal protein S6 kinase beta-1 (Homo sapiens) (UniProt P23443)
# [44] = test system: Mast/stem cell growth factor receptor Kit (Homo sapiens), P10721 [A829P]
# [45] = target: Serine/threonine-protein kinase Nek7 (Homo sapiens) (UniProt Q8TDX7)
# Chain of TGF-beta receptor type-2 (Homo sapiens) (P37173 whole entry, canonical isoform): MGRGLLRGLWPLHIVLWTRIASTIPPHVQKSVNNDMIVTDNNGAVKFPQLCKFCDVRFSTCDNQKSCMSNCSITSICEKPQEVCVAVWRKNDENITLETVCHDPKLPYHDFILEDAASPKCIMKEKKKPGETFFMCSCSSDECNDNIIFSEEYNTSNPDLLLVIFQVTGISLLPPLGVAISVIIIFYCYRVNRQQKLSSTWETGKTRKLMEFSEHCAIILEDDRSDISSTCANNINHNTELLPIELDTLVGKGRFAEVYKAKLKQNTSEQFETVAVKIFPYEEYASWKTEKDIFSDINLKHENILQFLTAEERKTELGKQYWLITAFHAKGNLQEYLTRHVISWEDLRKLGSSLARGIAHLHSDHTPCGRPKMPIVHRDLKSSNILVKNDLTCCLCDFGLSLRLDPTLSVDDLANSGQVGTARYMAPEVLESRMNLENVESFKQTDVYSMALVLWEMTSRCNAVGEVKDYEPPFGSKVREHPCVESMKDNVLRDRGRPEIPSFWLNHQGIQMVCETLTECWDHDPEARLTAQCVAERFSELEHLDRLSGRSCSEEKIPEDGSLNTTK
# Chain of G protein-coupled receptor kinase 4 (Homo sapiens) (P32298 whole entry, looked up): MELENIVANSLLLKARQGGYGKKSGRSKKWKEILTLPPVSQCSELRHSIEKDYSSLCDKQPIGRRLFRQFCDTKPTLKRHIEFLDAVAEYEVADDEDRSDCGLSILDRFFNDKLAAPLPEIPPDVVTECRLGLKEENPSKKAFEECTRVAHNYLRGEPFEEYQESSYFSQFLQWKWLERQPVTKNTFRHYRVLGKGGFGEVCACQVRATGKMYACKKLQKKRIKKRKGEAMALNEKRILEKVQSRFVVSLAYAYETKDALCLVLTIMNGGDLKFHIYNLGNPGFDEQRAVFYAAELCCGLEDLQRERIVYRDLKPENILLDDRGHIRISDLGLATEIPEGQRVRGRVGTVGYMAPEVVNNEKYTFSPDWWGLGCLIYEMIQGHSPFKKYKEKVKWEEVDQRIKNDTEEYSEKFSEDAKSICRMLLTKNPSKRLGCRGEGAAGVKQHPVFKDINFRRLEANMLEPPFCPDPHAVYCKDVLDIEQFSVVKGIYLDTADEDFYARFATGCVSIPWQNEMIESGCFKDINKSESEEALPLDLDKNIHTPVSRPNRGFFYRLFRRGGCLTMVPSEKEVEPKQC
# Chain of Angiopoietin-1 receptor (Homo sapiens) (Q02763 whole entry): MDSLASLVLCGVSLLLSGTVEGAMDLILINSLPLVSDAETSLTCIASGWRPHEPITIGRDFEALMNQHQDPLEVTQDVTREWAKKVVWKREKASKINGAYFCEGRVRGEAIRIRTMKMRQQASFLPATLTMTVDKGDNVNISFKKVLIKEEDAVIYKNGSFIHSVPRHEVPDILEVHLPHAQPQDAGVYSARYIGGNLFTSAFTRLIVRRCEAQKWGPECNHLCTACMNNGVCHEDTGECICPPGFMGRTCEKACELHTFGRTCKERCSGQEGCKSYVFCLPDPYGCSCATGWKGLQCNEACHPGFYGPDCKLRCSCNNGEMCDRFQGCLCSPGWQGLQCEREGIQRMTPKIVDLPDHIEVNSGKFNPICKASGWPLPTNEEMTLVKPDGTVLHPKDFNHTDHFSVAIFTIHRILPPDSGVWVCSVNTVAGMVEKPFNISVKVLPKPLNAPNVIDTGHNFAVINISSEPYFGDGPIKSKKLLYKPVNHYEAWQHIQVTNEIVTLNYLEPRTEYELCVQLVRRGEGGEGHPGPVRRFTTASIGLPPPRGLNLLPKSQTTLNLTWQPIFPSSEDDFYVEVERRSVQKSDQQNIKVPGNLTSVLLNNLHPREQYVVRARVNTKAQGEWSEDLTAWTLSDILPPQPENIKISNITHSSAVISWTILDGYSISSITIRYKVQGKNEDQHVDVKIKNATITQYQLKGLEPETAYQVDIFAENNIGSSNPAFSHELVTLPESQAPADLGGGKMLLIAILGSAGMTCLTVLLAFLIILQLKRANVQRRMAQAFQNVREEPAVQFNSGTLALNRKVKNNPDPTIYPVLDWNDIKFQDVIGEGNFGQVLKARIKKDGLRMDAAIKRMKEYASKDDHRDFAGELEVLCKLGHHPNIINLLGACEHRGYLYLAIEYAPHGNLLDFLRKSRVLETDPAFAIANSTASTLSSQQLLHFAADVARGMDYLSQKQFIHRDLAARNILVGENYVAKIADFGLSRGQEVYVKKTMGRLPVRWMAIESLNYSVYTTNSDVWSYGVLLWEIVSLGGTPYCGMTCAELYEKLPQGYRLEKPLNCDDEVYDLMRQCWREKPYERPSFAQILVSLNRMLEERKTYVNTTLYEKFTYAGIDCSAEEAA
# Chain of Ribosomal protein S6 kinase beta-1 (Homo sapiens) (P23443 whole entry, looked up): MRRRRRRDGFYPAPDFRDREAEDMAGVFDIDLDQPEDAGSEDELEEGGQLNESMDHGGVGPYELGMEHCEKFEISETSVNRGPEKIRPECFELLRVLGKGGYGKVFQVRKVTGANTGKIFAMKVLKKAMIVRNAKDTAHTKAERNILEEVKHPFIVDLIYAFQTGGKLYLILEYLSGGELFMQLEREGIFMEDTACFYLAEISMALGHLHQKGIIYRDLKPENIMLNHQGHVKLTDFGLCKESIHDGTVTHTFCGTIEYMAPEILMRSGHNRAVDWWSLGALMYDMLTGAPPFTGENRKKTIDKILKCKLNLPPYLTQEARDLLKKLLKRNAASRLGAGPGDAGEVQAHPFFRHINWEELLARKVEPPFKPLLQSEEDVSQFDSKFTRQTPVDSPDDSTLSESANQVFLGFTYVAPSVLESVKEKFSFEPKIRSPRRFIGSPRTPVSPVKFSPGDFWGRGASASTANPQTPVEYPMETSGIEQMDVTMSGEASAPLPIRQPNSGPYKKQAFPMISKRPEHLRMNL
# Chain of Calcium/calmodulin-dependent protein kinase type 1D (Homo sapiens) (Q8IU85 whole entry, looked up): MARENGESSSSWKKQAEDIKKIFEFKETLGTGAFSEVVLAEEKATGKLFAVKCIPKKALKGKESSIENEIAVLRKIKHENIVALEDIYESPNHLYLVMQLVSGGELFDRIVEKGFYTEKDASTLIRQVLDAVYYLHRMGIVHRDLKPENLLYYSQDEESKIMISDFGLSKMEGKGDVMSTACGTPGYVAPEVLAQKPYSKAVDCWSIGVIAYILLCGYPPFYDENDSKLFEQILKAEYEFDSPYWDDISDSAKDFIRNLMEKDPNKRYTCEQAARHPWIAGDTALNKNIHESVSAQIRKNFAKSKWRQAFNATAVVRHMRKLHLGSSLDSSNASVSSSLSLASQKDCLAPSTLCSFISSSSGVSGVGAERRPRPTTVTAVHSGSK
# Chain of SRSF protein kinase 3 (Homo sapiens) (Q9UPE1 whole entry): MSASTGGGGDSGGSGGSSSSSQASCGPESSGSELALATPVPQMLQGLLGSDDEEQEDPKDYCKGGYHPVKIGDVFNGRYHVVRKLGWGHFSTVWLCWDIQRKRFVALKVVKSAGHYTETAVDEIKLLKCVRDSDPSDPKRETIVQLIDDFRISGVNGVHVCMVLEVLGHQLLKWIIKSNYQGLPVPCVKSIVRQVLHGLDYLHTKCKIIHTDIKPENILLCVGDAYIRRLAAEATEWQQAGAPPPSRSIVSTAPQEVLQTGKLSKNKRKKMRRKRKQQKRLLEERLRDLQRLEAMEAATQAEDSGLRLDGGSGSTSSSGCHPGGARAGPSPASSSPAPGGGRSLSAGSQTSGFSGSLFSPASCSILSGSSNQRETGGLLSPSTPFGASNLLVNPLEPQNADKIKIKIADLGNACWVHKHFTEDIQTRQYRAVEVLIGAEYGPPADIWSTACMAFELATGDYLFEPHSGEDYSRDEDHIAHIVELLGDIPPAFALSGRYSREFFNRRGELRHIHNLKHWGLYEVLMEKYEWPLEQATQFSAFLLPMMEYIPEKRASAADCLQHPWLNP
# Chain of Serine/threonine-protein kinase TAO2 (Homo sapiens) (Q9UL54 whole entry): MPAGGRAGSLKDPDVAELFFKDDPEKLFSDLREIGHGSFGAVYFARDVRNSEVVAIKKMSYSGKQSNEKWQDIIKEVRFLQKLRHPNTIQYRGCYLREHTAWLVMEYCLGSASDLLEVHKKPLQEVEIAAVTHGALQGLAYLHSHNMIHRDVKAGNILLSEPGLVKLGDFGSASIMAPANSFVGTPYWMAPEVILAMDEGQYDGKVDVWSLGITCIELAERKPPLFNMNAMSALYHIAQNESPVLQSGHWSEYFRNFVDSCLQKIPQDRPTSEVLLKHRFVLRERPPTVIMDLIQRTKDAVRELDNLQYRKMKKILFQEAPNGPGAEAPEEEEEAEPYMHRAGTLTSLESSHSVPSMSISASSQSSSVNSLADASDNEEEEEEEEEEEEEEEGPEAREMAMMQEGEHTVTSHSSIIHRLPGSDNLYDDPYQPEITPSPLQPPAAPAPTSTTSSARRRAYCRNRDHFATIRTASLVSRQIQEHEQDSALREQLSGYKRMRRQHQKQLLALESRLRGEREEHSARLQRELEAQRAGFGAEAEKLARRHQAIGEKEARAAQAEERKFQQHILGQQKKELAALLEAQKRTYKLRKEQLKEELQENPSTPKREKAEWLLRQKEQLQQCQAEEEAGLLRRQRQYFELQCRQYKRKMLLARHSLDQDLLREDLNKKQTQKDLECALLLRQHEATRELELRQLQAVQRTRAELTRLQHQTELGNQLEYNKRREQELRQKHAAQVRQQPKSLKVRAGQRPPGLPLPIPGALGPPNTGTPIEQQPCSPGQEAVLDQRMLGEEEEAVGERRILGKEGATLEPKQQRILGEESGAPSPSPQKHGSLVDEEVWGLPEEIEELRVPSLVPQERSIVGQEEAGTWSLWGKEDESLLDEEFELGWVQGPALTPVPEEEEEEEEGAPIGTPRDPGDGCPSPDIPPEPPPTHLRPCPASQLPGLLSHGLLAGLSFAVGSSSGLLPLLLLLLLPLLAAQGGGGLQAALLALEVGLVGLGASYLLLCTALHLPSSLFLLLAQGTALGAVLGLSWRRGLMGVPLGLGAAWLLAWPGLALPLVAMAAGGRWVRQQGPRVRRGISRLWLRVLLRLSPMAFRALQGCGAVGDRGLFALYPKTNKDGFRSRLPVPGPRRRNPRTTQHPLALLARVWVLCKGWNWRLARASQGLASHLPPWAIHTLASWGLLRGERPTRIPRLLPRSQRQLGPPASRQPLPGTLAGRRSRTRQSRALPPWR
smiles,measurement,setting,value
CS(=O)(=O)NCC[C@H](NC(=O)c1cncc2c1cnn2-c1ccc(F)cc1)c1ccnc(S(C)(=O)=O)c1 [BI 9307],residual activity,[1],82%
same,residual activity,[2],100%
same,residual activity,[3],84%
same,residual activity,[4],100%
same,residual activity,[5],100%
same,residual activity,[6],100%
same,residual activity,[7],100%
same,residual activity,[8],100%
same,residual activity,[9],100%
same,residual activity,[10],100%
same,residual activity,[11],100%
same,residual activity,[12],89%
same,residual activity,[13],97%
same,residual activity,[14],96%
same,residual activity,[15],91%
same,residual activity,[16],100%
same,residual activity,[17],77%
same,residual activity,[18],97%
same,residual activity,[19],82%
same,residual activity,[20],100%
same,residual activity,[21],80%
same,residual activity,[22],100%
same,residual activity,[23],100%
same,residual activity,[24],100%
same,residual activity,[25],100%
same,residual activity,[26],83%
same,residual activity,[27],100%
same,residual activity,[28],100%
same,residual activity,[29],100%
same,residual activity,[30],98%
same,residual activity,[31],50%
same,residual activity,[32],100%
same,residual activity,[33],100%
same,residual activity,[34],100%
same,residual activity,[35],100%
same,residual activity,[36],98%
same,residual activity,[37],100%
same,residual activity,[38],100%
same,residual activity,[39],76%
same,residual activity,[40],85%
same,residual activity,[41],94%
same,residual activity,[42],100%
same,residual activity,[43],86%
same,residual activity,[44],83%
same,residual activity,[45],90%
CS(=O)(=O)c1cc(C2(NC(=O)c3cncc4c3cnn4-c3ccc(F)cc3)CC2)ccn1 [BI 639667],residual activity,[1],94%
same,residual activity,[2],100%
same,residual activity,[3],100%
same,residual activity,[4],96%
same,residual activity,[5],81%
same,residual activity,[6],100%
same,residual activity,[7],100%
same,residual activity,[8],100%
same,residual activity,[9],74%
same,residual activity,[10],91%
same,residual activity,[11],100%
same,residual activity,[12],100%
same,residual activity,[13],100%
same,residual activity,[14],100%
same,residual activity,[15],100%
same,residual activity,[16],100%
same,residual activity,[17],84%
same,residual activity,[18],100%
same,residual activity,[19],100%
same,residual activity,[20],88%
same,residual activity,[21],97%
same,residual activity,[22],100%
same,residual activity,[23],100%
same,residual activity,[24],100%
same,residual activity,[25],100%
same,residual activity,[26],86%
same,residual activity,[27],100%
same,residual activity,[28],100%
same,residual activity,[29],100%
same,residual activity,[30],81%
same,residual activity,[31],34%
same,residual activity,[32],89%
same,residual activity,[33],88%
same,residual activity,[34],85%
same,residual activity,[35],100%
same,residual activity,[36],90%
same,residual activity,[37],94%
same,residual activity,[38],100%
same,residual activity,[39],79%
same,residual activity,[40],97%
same,residual activity,[41],94%
same,residual activity,[42],100%
same,residual activity,[43],100%
same,residual activity,[44],100%
same,residual activity,[45],100%

# From ChEMBL document CHEMBL4507278 (2021)
